# According to publication PMC4904746 (EXCLI Journal, 2013):
# “Also recorded” adds a separate entry of the source.
# Biological target: α-glucosidase from recombinant Saccharomyces cerevisiae (Saccharomyces cerevisiae, UniProt P53341)
# Test: α-glucosidase inhibitory activity assay
# Format: biochemical
# Conditions: comparison among the fractions and compounds 1-8 isolated from CCF
# Chain of α-glucosidase from recombinant Saccharomyces cerevisiae (P53341 whole entry): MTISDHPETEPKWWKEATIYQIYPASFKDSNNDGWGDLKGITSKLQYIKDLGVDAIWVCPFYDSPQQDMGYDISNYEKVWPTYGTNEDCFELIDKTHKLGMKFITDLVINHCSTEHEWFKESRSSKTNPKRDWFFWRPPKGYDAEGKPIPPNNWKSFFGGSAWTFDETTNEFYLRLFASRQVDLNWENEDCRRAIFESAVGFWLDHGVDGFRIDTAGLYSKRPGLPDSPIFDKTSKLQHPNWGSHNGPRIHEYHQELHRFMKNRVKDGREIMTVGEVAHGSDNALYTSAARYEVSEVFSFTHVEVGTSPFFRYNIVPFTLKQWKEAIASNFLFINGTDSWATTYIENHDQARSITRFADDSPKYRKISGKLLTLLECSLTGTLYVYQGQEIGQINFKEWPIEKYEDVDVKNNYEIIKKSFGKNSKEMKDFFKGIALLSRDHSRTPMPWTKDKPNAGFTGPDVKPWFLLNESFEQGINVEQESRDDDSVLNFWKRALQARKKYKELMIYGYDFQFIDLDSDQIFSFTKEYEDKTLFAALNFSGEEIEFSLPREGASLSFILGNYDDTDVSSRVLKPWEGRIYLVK
row,SMILES,α-glucosidase inhibitory activity (comparison in words)
1,"O=c1c(O)c(-c2ccc(O)cc2)oc2cc(O)cc(O)c12 [Compound 3, kaempferol]",higher α-glucosidase inhibitory activity than the flavonoid
2,"O=c1c(O[C@@H]2O[C@H](CO)[C@H](O)[C@H](O)[C@H]2O)c(-c2ccc(O)c(O)c2)oc2cc(O)cc(O)c12 [Compound 4, hyperin]",more significant inhibitory activity against α-glucosidase than other mono-hydroxy flavonoids
3,"O=c1c(O)c(-c2ccc(O)c(O)c2)oc2cc(O)cc(O)c12 [Compound 6, quercetin]",higher α-glucosidase inhibitory activity than the flavonoid; also recorded: more significant inhibitory activity against α-glucosidase than other mono-hydroxy flavonoids; also recorded: highest α-glucosidase inhibitory activity
4,"O=c1c(O)c(-c2ccc(O)cc2)oc2cc(O[C@@H]3O[C@H](CO)[C@@H](O)[C@H](O)[C@H]3O)cc(O)c12 [Compound 8, kaempferol-7-O-β-D-glucoside]",higher α-glucosidase inhibitory activity than the flavonoid
